The test system of assay [1] is Beet Armyworm (Spodoptera exigua, LAPHEG). Nature of the assay: Bioassays on Beet Armyworm (BAW), 128-well diet tray assay. Type of assay: in vivo. As to conditions: Spodoptera exigua. The procedure, abridged:
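Eight diet wells per compound were treated at 50 μg/cm^2 (acetone-water 90:10), dried, then infested with 1–5 second-instar larvae each. After five to seven days at 25 °C under 14:10 photoperiod, mortality was scored and averaged across wells.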

Assay [2] has as its system Cabbage Looper (Trichoplusia ni, TRIPNI). In words: Bioassays on Cabbage Looper (CL), 128-well diet tray assay. It counts as in vivo. Particulars: Trichoplusia ni. The procedure, abridged:
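Activity is mean percent mortality over eight wells of second-instar larvae exposed to diet treated at 50 μg/cm^2 for 5–7 days at 25° C.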

Setting [3] is: Beet Armyworm, rating class, read-out: BAW.
Where [4] appears, read: Cabbage Looper, rating class, read-out: CL.
Setting [5] is: Table ABC: Biological Results, species BAW, read-out: BAW.
Setting [6] is: Table ABC: Biological Results, species CL, read-out: CL.

Like-named read-outs stand apart in the source and are kept apart here.

As for `CC(=O)Nc1cc(NC(=O)c2cc(NC(=O)[C@H]3[C@H](c4ccc(Cl)c(Cl)c4)C3(Cl)Cl)cc(C)c2Cl)c(F)cc1F` [F1546, N-(5-Acetamido-2,4-difluorophenyl)-2-chloro-5-((1R,3R)-2,2-dichloro-3-(3,4-dichlorophenyl)cyclopropane-1-carboxamido)-3-methylbenzamide], the pest or weed control at 50 µg/cm2 in assay [1] (setting [3]) and in assay [2] (setting [4]) was 50 to 100% each time.

`CN(C)CC(=O)N(C)NC(=O)c1cc(NC(=O)[C@H]2[C@H](c3cc(Cl)cc(Cl)c3)C2(Cl)Cl)ccc1Cl` (relative stereo) [F2526, trans-2,2-Dichloro-N-(4-chloro-3-(2-(dimethylglycyl)-2-methylhydrazine-1-carbonyl)phenyl)-3-(3,5-dichlorophenyl)cyclopropane-1-carboxamide]: the pest or weed control at 50 µg/cm2 in assay [1] (Beet Armyworm, Table ABC / ABC-DP rating, read-out: BAW rating) was in the range of 50 to 100%; in assay [2] (Cabbage Looper, Table ABC / ABC-DP rating, read-out: CL rating), 50 to 100%.

With `O=C(Nc1cc(NC(=O)C(F)(F)F)c(F)cc1F)c1cc(NC(=O)[C@H]2[C@H](c3ccc(F)c(Cl)c3)C2(Cl)Cl)cc(F)c1Cl` [F1401, 2-Chloro-5-((1R,3R)-2,2-dichloro-3-(3-chloro-4-fluorophenyl)cyclopropane-1-carboxamido)-N-(2,4-difluoro-5-(2,2,2-trifluoroacetamido)phenyl)-3-fluorobenzamide], the pest or weed control at 50 µg/cm2 in assay [1] (setting [3]) and in assay [2] (setting [4]) was 50 to 100% in each case.

Turning to `O=C(Nc1ccc(F)c(NC(=O)C(F)(F)F)c1F)c1cc(NC(=O)[C@H]2[C@H](c3cc(Cl)c(Cl)c(Cl)c3)C2(Cl)Cl)ccc1Cl` [F1533, 2-Chloro-5-((1R,3R)-2,2-dichloro-3-(3,4,5-trichlorophenyl)cyclopropane-1-carboxamido)-N-(2,4-difluoro-3-(2,2,2-trifluoroacetamido)phenyl)benzamide], the pest or weed control at 50 µg/cm2 in assay [1] (setting [3]) and in assay [2] (setting [4]) was 50 to 100% in each case.

Regarding `O=C(Nc1c(F)ccc(NC(=O)C(F)(F)C(F)F)c1F)c1cc(NC(=O)[C@H]2[C@H](c3cc(Cl)c(Cl)c(Cl)c3)C2(Cl)Cl)ccc1Cl` [F1534, 2-Chloro-5-((1R,3R)-2,2-dichloro-3-(3,4,5-trichlorophenyl)cyclopropane-1-carboxamido)-N-(2,6-difluoro-3-(2,2,3,3-tetrafluoropropanamido)phenyl)benzamide], the pest or weed control at 50 µg/cm2 in assay [1] (setting [3]) and in assay [2] (setting [4]) was 50 to 100% in each case.

Consider `Cc1ccc(CNc2ccc(NC(=O)c3cc(NC(=O)[C@H]4[C@H](c5cc(Cl)cc(Cl)c5)C4(Cl)Cl)ccc3Cl)c(C)c2)cc1` (relative stereo) [F1041, trans-2-Chloro-5-(2,2-dichloro-3-(3,5-dichlorophenyl)cyclopropane-1-carboxamido)-N-(2-methyl-4-((4-methylbenzyl)amino)phenyl)benzamide], for which the pest or weed control at 50 µg/cm2 in assay [1] (setting [5]) and in assay [2] (setting [6]) was 50 to 100% throughout.

As for `Cc1cc(NC(=O)[C@H]2[C@H](c3ccc(Cl)c(Cl)c3)C2(Cl)Cl)cc(C(=O)Nc2ccc(F)c(N)c2F)c1Cl` [F1446, N-(3-Amino-2,4-difluorophenyl)-2-chloro-5-((1R,3R)-2,2-dichloro-3-(3,4-dichlorophenyl)cyclopropane-1-carboxamido)-3-methylbenzamide], the pest or weed control at 50 µg/cm2 in assay [1] (setting [3]) and in assay [2] (setting [4]) was 50 to 100% each time.

In the case of `CC(=O)Nc1ccc(NC(=O)c2c(Cl)ccc(NC(=O)[C@H]3[C@H](c4ccc(F)c(Cl)c4)C3(Cl)Cl)c2Cl)cc1` (relative stereo) [F1102, trans-N-(4-Acetamidophenyl)-2,6-dichloro-3-(2,2-dichloro-3-(3-chloro-4-fluorophenyl)cyclopropane-1-carboxamido)benzamide], the pest or weed control at 50 µg/cm2 in assay [1] (setting [5]) and in assay [2] (setting [6]) was 50 to 100% in each case.
